Molecules are shown by their SMILES. Several values for one entry are separate records, joined by “and”; a condition that tells them apart may be missing. Identical values can stand only once.

A short description of data set [1]: Mouse liver microsomal stability of compound in microsomal protein, PBS buffer pH 7.4, NADPH, glucose-6-phosphate and glucose-6-phosphate dehydrogenase media. Aliquotes were taken at 5 time points and after stopping the reaction, supernatants were analyzed using HPLC coupled with a tandem mass spectrometer. The elimination constant, half-life, and intrinsic clearance are determined as results using linear regression analysis. The assay has been performed by Enamine biological services, Bienta Ltd.The protocol is publicly available: dx.doi.org/10.17504/protocols.io.5qpvokdb9l4o/v1. The following applies: for half-life / microsomal CLint: liver microsomes; for Remaining / Remaining (without cofactor) / CLint / T1/2: microsomes. The class given is ADME, microsomes, Microsome.

Data set [2] can be described thus: Human liver microsomal stability of compound in microsomal protein, PBS buffer pH 7.4, NADPH, glucose-6-phosphate and glucose-6-phosphate dehydrogenase media. Aliquotes were taken at 5 time points and after stopping the reaction, supernatants were analyzed using HPLC coupled with a tandem mass spectrometer. The elimination constant, half-life, and intrinsic clearance are determined as results using linear regression analysis. The assay has been performed by Enamine biological services, Bienta Ltd.The protocol is publicly available: dx.doi.org/10.17504/protocols.io.5qpvokdb9l4o/v1. The following applies: for half-life / microsomal CLint: liver microsomes; for Remaining / Remaining (without cofactor) / CLint / T1/2: microsomes. The format is ADME, microsomes, Microsome. On the technique in general: Microsomes from liver hold many membrane-bound enzymes, among them those of drug oxidation.
Wherever Remaining (without cofactor) is given: time not given here.
Wherever Remaining is given: time not given here.

One may read the half-life as the time in which the quantity being followed falls by half. The low end stands for rapid decline, the high end for slow decline. A word on the microsomal CLint: it is the capacity of the preparation to metabolise the compound, expressed as a volume cleared per time. A low value points to slow turnover. Take `CNC(=O)Cn1cc(-c2cc3c(N[C@H](c4ccc5c(c4)S(=O)(=O)CCC5)C(C)C)ncnc3[nH]2)cn1`: in data set [1], the half-life worked out at 15 min, the intrinsic metabolic clearance (microsomal CLint) is 111 µL/min/mg, the Remaining was determined as 16% and the “Remaining (without cofactor)” value came to 96%. In data set [2], the half-life was 18.1 min, the microsomal CLint is 92 µL/min/mg, the Remaining is reported as 23% and the “Remaining (without cofactor)” value came out at 101%.
As to `CC(C)[C@H](Nc1ncnc2[nH]c(-c3cnn(CC(N)=O)c3)cc12)c1ccc2c(n1)OCCO2`, in data set [1], the half-life was found to be 359 min, the intrinsic clearance (microsomal CLint) amounted to 5 µL/min/mg, the Remaining was found to be 99% and the “Remaining (without cofactor)” value was 110%. In addition, in data set [2], the half-life came out at 134 min, the microsomal CLint was found to be 12 µL/min/mg, the Remaining worked out at 85% and the “Remaining (without cofactor)” value amounted to 90%.
Consider `CCNC(=O)c1cc2c(N[C@@H](c3ccc4c(c3)OCCO4)C(C)C)ncnc2[nH]1`, for which, in data set [1], the half-life turned out to be 19 min; the microsomal CLint is 88 µL/min/mg; the CLint stood at 72 µL/min/mg; the Remaining was 24% and 29%. For the same molecule, in data set [1], the “Remaining (without cofactor)” value is 109% and 92%; the T1/2 came out at 23.2 min. Besides, the “Remaining (without cofactor)” value in data set [2] is 103% and 97%.
Take `CNC(=O)c1c[nH]c2ncnc(N[C@@H](c3ccc4c(c3)OCCO4)C(C)C)c12`: in data set [1], the half-life was found to be 19 min, the microsomal CLint came out at 88 µL/min/mg, the Remaining came to 20% and the “Remaining (without cofactor)” value came to 95%. For the same molecule, in data set [2], the half-life is 21.2 min, the intrinsic clearance (microsomal CLint) worked out at 79 µL/min/mg, the Remaining is reported as 27% and the “Remaining (without cofactor)” value turned out to be 113%.
With `O=C(Nc1cccc2c(C(=O)N[C@@H]3c4ccccc4C[C@@H]3C(=O)O)c[nH]c12)NC1CC1`, in data set [1], the half-life was determined as 454 min, the microsomal CLint worked out at 4 µL/min/mg, the Remaining is reported as 95% and the “Remaining (without cofactor)” value came to 105%. Further, in data set [2], the half-life was 280 min, the microsomal CLint worked out at 6 µL/min/mg, the Remaining amounted to 88% and the “Remaining (without cofactor)” value came to 86%.
Turning to `CNC(=O)Cn1cc(-c2cc3c(N[C@@H](c4ccc5c(c4)S(=O)(=O)CCC5)C(C)C)ncnc3[nH]2)cn1`, in data set [1], the half-life was found to be 21.6 min; the intrinsic metabolic clearance (microsomal CLint) turned out to be 77 µL/min/mg; the CLint amounted to 44 µL/min/mg; the Remaining is 26% and 48%. In data set [1], the “Remaining (without cofactor)” value is 103% and 90%; the T1/2 came out at 37.8 min. Moreover, in data set [2], the CLint is 94 µL/min/mg and 237 µL/min/mg; the “Remaining (without cofactor)” value is 96% and 89%; the T1/2 was 17.7 min and 7 min.
In the case of `CCNC(=O)c1cc2c(N[C@H](c3ccc4c(c3)OCCO4)C(C)C)ncnc2[nH]1`, in data set [1], the half-life came out at 34.6 min, the microsomal CLint worked out at 48 µL/min/mg, the Remaining was 47% and the “Remaining (without cofactor)” value amounted to 94%. For the same molecule, in data set [2], the half-life worked out at 24.8 min, the microsomal CLint is 67 µL/min/mg, the Remaining was determined as 32% and the “Remaining (without cofactor)” value amounted to 100%.
Take `CNC(=O)c1cc2c(N[C@H](c3ccc4c(c3)S(=O)(=O)CCC4)C(C)C)ncnc2[nH]1`: in data set [1], the half-life turned out to be 35.3 min, the microsomal CLint came to 47 µL/min/mg, the Remaining was determined as 42% and the “Remaining (without cofactor)” value worked out at 106%. In data set [2], the half-life was determined as 25 min, the microsomal CLint was 67 µL/min/mg, the Remaining was determined as 33% and the “Remaining (without cofactor)” value came out at 107%.
Regarding `CNCc1cc(-c2cc3c(N[C@@H](c4ccc5c(c4)S(=O)(=O)CCC5)C(C)C)ncnc3[nH]2)co1`, in data set [1], the half-life was 32.2 min; the intrinsic metabolic clearance (microsomal CLint) stood at 52 µL/min/mg; the CLint amounted to 54 µL/min/mg; the Remaining was 41% and 35%. For the same molecule, in data set [1], the “Remaining (without cofactor)” value is 108% and 101%; the T1/2 came to 30.9 min. In addition, in data set [2], the CLint was 57 µL/min/mg and 133 µL/min/mg; the “Remaining (without cofactor)” value was 110% and 95%; the T1/2 is 29.4 min and 12.6 min.
For `CNC(=O)c1cc2c(N[C@@H](c3ccc4c(c3)NC(=O)CO4)C(C)C)ncnc2[nH]1`, in data set [1], the half-life worked out at 84.4 min; the intrinsic clearance (microsomal CLint) is 20 µL/min/mg; the CLint is 33 µL/min/mg; the Remaining was 71% and 57%. In addition, in data set [1], the “Remaining (without cofactor)” value is 103% and 99%; the T1/2 is recorded as 51.2 min. The “Remaining (without cofactor)” value in data set [2] is 94% and 96%.
On to `CC(C)(C)[C@H](Nc1ncnc2[nH]c(-c3cnn(CC(N)=O)c3)cc12)c1ccc2c(c1)OCCO2`, for which, in data set [1], the half-life came to 38.3 min, the intrinsic clearance (microsomal CLint) amounted to 44 µL/min/mg, the Remaining was found to be 48% and the “Remaining (without cofactor)” value came out at 105%. In data set [2], the half-life was 10.9 min, the microsomal CLint turned out to be 153 µL/min/mg, the Remaining is recorded as 9% and the “Remaining (without cofactor)” value came to 100%.
Take `C[C@H](C(=O)O)[C@@H](NC(=O)c1ncnc2[nH]ccc12)c1ccc(Br)cc1`: in data set [1], the half-life amounted to 380 min, the intrinsic metabolic clearance (microsomal CLint) worked out at 4 µL/min/mg, the Remaining is reported as 111.226% and the “Remaining (without cofactor)” value was 100.245%. For the same molecule, in data set [2], the half-life turned out to be 574 min, the microsomal CLint came to 3 µL/min/mg, the Remaining is given as 92.211% and the “Remaining (without cofactor)” value was found to be 101.611%.
For `CC(C)[C@H](Nc1ncnc2[nH]ccc12)c1ccc2c(c1)NC(=O)CO2`, in data set [1], the half-life was 45.1 min, the intrinsic metabolic clearance (microsomal CLint) came to 37 µL/min/mg, the Remaining is given as 54% and the “Remaining (without cofactor)” value was 89%. In data set [2], the half-life was 160 min, the microsomal CLint was 10 µL/min/mg, the Remaining is 86% and the “Remaining (without cofactor)” value is given as 95%.
As for `CC(C)[C@@H](Nc1ncnc(N)c1Cl)c1ccc2c(c1)S(=O)(=O)CCC2`, in data set [1], the half-life stood at 8.2 min, the intrinsic clearance (microsomal CLint) stood at 204 µL/min/mg, the Remaining was 4% and the “Remaining (without cofactor)” value turned out to be 102%. Also, in data set [2], the half-life worked out at 21 min, the intrinsic clearance (microsomal CLint) worked out at 79 µL/min/mg, the Remaining came out at 27% and the “Remaining (without cofactor)” value was 101%.
On to `CC(C)[C@H](Nc1ncnc2[nH]c(C(=O)N[C@@H]3CCN(C)C3)cc12)c1ccc2c(c1)S(=O)(=O)CCC2`, for which, in data set [1], the half-life worked out at 649 min, the intrinsic clearance (microsomal CLint) was 3 µL/min/mg, the Remaining came out at 104% and the “Remaining (without cofactor)” value stood at 107%. In addition, in data set [2], the half-life came to 627 min, the intrinsic clearance (microsomal CLint) stood at 3 µL/min/mg, the Remaining is 98% and the “Remaining (without cofactor)” value is listed as 100%.
`CNC(=O)c1cc2c(N[C@@H](c3ccc4c(c3)OCCO4)C(C)C)ncnc2[nH]1`: in data set [1], the half-life was found to be 30.5 min, the intrinsic clearance (microsomal CLint) is 55 µL/min/mg, the Remaining worked out at 43% and the “Remaining (without cofactor)” value was determined as 112%. In data set [2], the half-life worked out at 21.1 min, the intrinsic clearance (microsomal CLint) stood at 79 µL/min/mg, the Remaining was 23% and the “Remaining (without cofactor)” value is 92%.
With `CC(C)[C@H](Nc1ncnc2[nH]c(-c3cnn(CC(=O)N(C)C)c3)cc12)c1ccc2c(c1)S(=O)(=O)CCC2`, in data set [1], the half-life came to 13.5 min, the intrinsic clearance (microsomal CLint) came out at 124 µL/min/mg, the Remaining was found to be 13% and the “Remaining (without cofactor)” value turned out to be 98%. For the same molecule, in data set [2], the half-life was found to be 18.1 min, the microsomal CLint came to 92 µL/min/mg, the Remaining came to 22% and the “Remaining (without cofactor)” value is recorded as 97%.
With `C[C@@H](C(=O)O)[C@@H](NC(=O)c1ncnc2[nH]ccc12)c1ccc(Br)cc1`, in data set [1], the half-life came out at 433 min, the microsomal CLint was found to be 4 µL/min/mg, the Remaining is 94% and the “Remaining (without cofactor)” value is 109%. In data set [2], the half-life came to 338 min, the microsomal CLint was 5 µL/min/mg, the Remaining worked out at 103% and the “Remaining (without cofactor)” value was 110%.
For the molecule `CNC(=O)c1cccc(-c2cc3c(N[C@H](c4ccc5c(c4)S(=O)(=O)CCC5)C(C)C)ncnc3[nH]2)c1`, in data set [1], the half-life was found to be 8.5 min, the intrinsic metabolic clearance (microsomal CLint) worked out at 197 µL/min/mg, the Remaining is on record as 4% and the “Remaining (without cofactor)” value is listed as 106%. Also, in data set [2], the half-life amounted to 2.2 min, the microsomal CLint was 746 µL/min/mg, the Remaining is listed as 0% and the “Remaining (without cofactor)” value amounted to 99%.
For the molecule `CCNC(=O)c1cc2c(N[C@@H](c3ccc4c(c3)S(=O)(=O)CCC4)C(C)C)ncnc2[nH]1`, in data set [1], the half-life is 19.5 min; the microsomal CLint turned out to be 85 µL/min/mg; the CLint was determined as 54 µL/min/mg; the Remaining was 21% and 43%. Besides, in data set [1], the “Remaining (without cofactor)” value was 95% and 114%; the T1/2 amounted to 30.8 min. For the same molecule, in data set [2], the Remaining was 15% and 0%; the “Remaining (without cofactor)” value was 98% and 102%.
On to `COc1ccc2c(c1)CCN(c1ncnc3[nH]ccc13)[C@H]2C(C)C`, for which, in data set [1], the half-life worked out at 5.2 min, the microsomal CLint is 321 µL/min/mg, the Remaining is given as 1% and the “Remaining (without cofactor)” value was 83%. In addition, in data set [2], the half-life is 27.8 min, the microsomal CLint is 60 µL/min/mg, the Remaining is reported as 38% and the “Remaining (without cofactor)” value stood at 103%.

These data come from ChEMBL document CHEMBL5442168, “ASAP - In vitro liver microsomal stability” (2024).
